Active and inactive are the calls of the source. The rule behind the calls is not given here.

This passage reports mutagenic call results from PubChem BioAssay AID1259407 (Chemical Carcinogenesis Research Information System (CCRIS), 2018).

The data set deals with CCRIS mutagenicity, Ames/micronucleus/aberration tests. The data set can be described thus: CCRIS mutagenicity studies.
Setting [1] is: Test System: AMES SALMONELLA TYPHIMURIUM, Strain/Indicator: TA98, Metabolic Activation: NONE, Method: STANDARD PLATE.
The mark [2] stands for this setting: Test System: AMES SALMONELLA TYPHIMURIUM, Strain/Indicator: TA100, Metabolic Activation: NONE, Method: STANDARD PLATE.

With `Cc1cc(C)c(S(=O)(=O)O)cc1N=Nc1cc(S(=O)(=O)O)c2ccccc2c1O`, the mutagenic call is “inactive; negative” (Test System: AMES SALMONELLA TYPHIMURIUM, Strain/Indicator: TA98, Metabolic Activation: HAMSTER, LIVER, S-9, AROCLOR 1254, Method: STANDARD PLATE); “inactive; negative” under setting [1]; “inactive; negative” (Test System: AMES SALMONELLA TYPHIMURIUM, Strain/Indicator: TA98, Metabolic Activation: RAT LIVER S-9, AROCLOR 1254, Method: STANDARD PLATE); “inactive; negative” (Test System: AMES SALMONELLA TYPHIMURIUM, Strain/Indicator: TA98, Metabolic Activation: RAT, LIVER, S-9, AROCLOR 1254, Method: STANDARD PLATE); “inactive; negative” (Test System: AMES SALMONELLA TYPHIMURIUM, Strain/Indicator: TA100, Metabolic Activation: HAMSTER, LIVER, S-9, AROCLOR 1254, Method: STANDARD PLATE); “inactive; negative” under setting [2]. In addition, the mutagenic call reads like this: (Test System: AMES SALMONELLA TYPHIMURIUM, Strain/Indicator: TA100, Metabolic Activation: RAT LIVER S-9, AROCLOR 1254, Method: STANDARD PLATE) “inactive; negative”; (Test System: AMES SALMONELLA TYPHIMURIUM, Strain/Indicator: TA100, Metabolic Activation: RAT, LIVER, S-9, AROCLOR 1254, Method: STANDARD PLATE) “inactive; negative”; (Test System: AMES SALMONELLA TYPHIMURIUM, Strain/Indicator: TA1535, Metabolic Activation: HAMSTER, LIVER, S-9, AROCLOR 1254, Method: STANDARD PLATE) “inactive; negative”; (Test System: AMES SALMONELLA TYPHIMURIUM, Strain/Indicator: TA1535, Metabolic Activation: NONE, Method: STANDARD PLATE) “inactive; negative”; (Test System: AMES SALMONELLA TYPHIMURIUM, Strain/Indicator: TA1535, Metabolic Activation: RAT, LIVER, S-9, AROCLOR 1254, Method: STANDARD PLATE) “inactive; negative”; (Test System: AMES SALMONELLA TYPHIMURIUM, Strain/Indicator: TA1537, Metabolic Activation: HAMSTER, LIVER, S-9, AROCLOR 1254, Method: STANDARD PLATE) “inactive; negative”. For the same molecule, the mutagenic call is, setting by setting: (Test System: AMES SALMONELLA TYPHIMURIUM, Strain/Indicator: TA1537, Metabolic Activation: NONE, Method: STANDARD PLATE) “inactive; negative”; (Test System: AMES SALMONELLA TYPHIMURIUM, Strain/Indicator: TA1537, Metabolic Activation: RAT, LIVER, S-9, AROCLOR 1254, Method: STANDARD PLATE) “inactive; negative”; (Test System: AMES SALMONELLA TYPHIMURIUM, Strain/Indicator: TA1538, Metabolic Activation: HAMSTER, LIVER, S-9, AROCLOR 1254 (2.5-20%), Method: PREINCUBATION) “inactive; negative”; (Test System: AMES SALMONELLA TYPHIMURIUM, Strain/Indicator: TA1538, Metabolic Activation: HAMSTER, LIVER, S-9, AROCLOR 1254, Method: STANDARD PLATE) “inactive; negative”; (Test System: AMES SALMONELLA TYPHIMURIUM, Strain/Indicator: TA1538, Metabolic Activation: NONE, Method: STANDARD PLATE) “inactive; negative”; (Test System: AMES SALMONELLA TYPHIMURIUM, Strain/Indicator: TA1538, Metabolic Activation: RAT, LIVER, S-9, AROCLOR 1254, Method: STANDARD PLATE) “inactive; negative”. Moreover, the mutagenic call reads like this: (Test System: MOUSE LYMPHOMA, Strain/Indicator: L5178Y (TK+/TK-), Metabolic Activation: NONE, Method: SUSPENSION/PLATE) “inactive; negative. reevaluation of results: negative”; (Test System: MOUSE LYMPHOMA, Strain/Indicator: L5178Y (TK+/TK-), Metabolic Activation: RAT, LIVER, S-9, AROCLOR 1254, Method: SUSPENSION/PLATE) “inactive; negative. reevaluation of results: negative”.
With `NC(=O)N(CC(=O)O)N=O`, the mutagenic call (Test System: E. COLI B, Strain/Indicator: H/R30R, Metabolic Activation: NONE) was “active; positive” and the mutagenic call (Test System: E. COLI B, Strain/Indicator: HS30R, Metabolic Activation: NONE) was “active; positive”.
On to `CN(C)c1ccc(C(=C2C=CC(=[N+](C)C)C=C2)c2ccccc2Cl)cc1`, for which the mutagenic call was “inactive; negative” (Test System: Ames Salmonella typhimurium, Strain/Indicator: TA98, Metabolic Activation: None, Method: Preincubation); “inactive; negative” (Test System: Ames Salmonella typhimurium, Strain/Indicator: TA98, Metabolic Activation: Rat, Liver, S-9, Aroclor 1254, Method: Preincubation); “inactive; negative” (Test System: Ames Salmonella typhimurium, Strain/Indicator: TA100, Metabolic Activation: None, Method: Preincubation); “inactive; negative” (Test System: Ames Salmonella typhimurium, Strain/Indicator: TA100, Metabolic Activation: Rat, Liver, S-9, Aroclor 1254, Method: Preincubation); “inactive; negative” (Test System: Ames Salmonella typhimurium, Strain/Indicator: TA102, Metabolic Activation: None, Method: Preincubation); “inactive; negative” (Test System: Ames Salmonella typhimurium, Strain/Indicator: TA102, Metabolic Activation: Rat, Liver, S-9, Aroclor 1254, Method: Preincubation). Further, the mutagenic call (Test System: Ames Salmonella typhimurium, Strain/Indicator: TA1535, Metabolic Activation: None, Method: Preincubation) was “inactive; negative” and the mutagenic call (Test System: Ames Salmonella typhimurium, Strain/Indicator: TA1535, Metabolic Activation: Rat, Liver, S-9, Aroclor 1254, Method: Preincubation) is “inactive; negative”.
As for `O=[N+]([O-])c1ccc(-c2nc(N(CCO)CCO)c3ccccc3n2)s1`, the mutagenic call under setting [1] was “active; positive” and the mutagenic call under setting [2] is “active; positive”.
Take `O=C(O)/C=C/C(=O)CC(=O)CC(=O)O`: the mutagenic call (Test System: CHINESE HAMSTER V-79, Strain/Indicator: V-79 (HGPRT)/6-THIOGUANINE, Metabolic Activation: NONE) is “active; positive”.
Turning to `C[C@@H]1C[C@]2(O[C@@H]2C)C(=O)O[C@@H]2CCN(C)C/C=C(/COC(=O)[C@]1(C)O)C2=O`, the mutagenic call is, setting by setting: (Test System: AMES SALMONELLA TYPHIMURIUM, Strain/Indicator: TA100, Metabolic Activation: HAMSTER, LIVER, S-9, PCB, Method: PREINCUBATION) “inactive; negative; by authors criteria results are positive”; (Test System: AMES SALMONELLA TYPHIMURIUM, Strain/Indicator: TA100, Metabolic Activation: RAT, LIVER, S-9, PCB, Method: PREINCUBATION) “active; positive”; (Test System: UDS RAT HEPATOCYTES, Strain/Indicator: THY INCORP, Metabolic Activation: NONE, Method: AUTORADIOGRAPHY) “active; positive”.
`CCN(CCCl)c1ccc(-c2nc3ccc(-c4nc5ccc(N6CCN(C)CC6)cc5[nH]4)cc3[nH]2)cc1`: the mutagenic call is “inactive; negative” under setting [1]; “inactive; negative” under setting [2]; “inactive; negative” (Test System: AMES SALMONELLA TYPHIMURIUM, Strain/Indicator: TA102, Metabolic Activation: NONE, Method: STANDARD PLATE).
